Results as given in US20060084704A1, “Methods and compositions for enhancing degradation of nuclear receptor transcription factors and uses thereof” (priority 2004, published 2006).
Where “and” joins values, the source holds several entries; their conditions need not be identical. Equal values may be shown once. Entries after “also recorded” stand apart in the source; their conditions may differ.

Experiments:
sebaceous glands = experiment: Reduction of sebaceous glands in Fuzzy rats by topical cream; type: in vivo; conditions: once daily; for size of the sebaceous glandular lobe and duct: male Fuzzy rats, 8 weeks
From the text: In this example, the test compounds JC15 and JC9, which were shown in the previous examples to ameliorate the effects of the androgen receptor-activated pathway, specifically by inducing degradation of the androgen receptor, and to be effective in treating acne in human subjects, were used to reduce sebaceous glandular lobe size in an animal model. Effective reduction of sebaceous glands by topical treatment may be useful in treating skin conditions such as acne. Fuzzy rats were used in this animal model as described in Ye et al. (1997) Skin Pharmacol., 10:10288-10297, which is incorporated by reference in its entirety herein.
Topical creams were prepared as described in EXAMPLE 6. The test creams contained JC9 ([…]) or JC15 (1 micromolar); a control cream with only vehicle added was also prepared. The test or control creams were applied using a cotton swab to the dorsal skin of the animal, once daily, over a period of 8 weeks. Animals were then sacrificed and skin samples collected for microscopic examination. Commercial hair remover was applied to the dorsal surface of the euthanized animals. After 5 minutes, the hair remover and hairs were removed with a tissue. The area was thoroughly cleaned with 75% isopropyl alcohol. A 4-millimeter skin punch was used to remove skin tissue samples, which were incubated for 2 to 3 hours in a ethylenediaminetetraacetate (EDTA, 17 millimolar), sodium phosphate (0.1 molar, pH 7.4) solution at 37 degrees Celsius. The epidermis was carefully separated from the dermis and stored in 10% phosphate-buffered formalin. Prior to microscopic examination, the samples were mounted on glass slides. Areas of well-preserved glandular lobules were selected for microscopic imaging. Edges of the glandular lobes were traced and the areas of the traced lobes obtained with Image J software (National Institutes of Health).

acne vulgaris = experiment: Topical treatment of acne in human volunteers; type: in vivo; conditions: for Recovery Time: topical cream, per subject
Experimental: In this example, human subjects were successfully treated for acne by topical administration of a cream containing the compound JC15 or JC9, which were shown in the previous examples to ameliorate the effects of the androgen receptor-activated pathway, specifically by inducing degradation of the androgen receptor. A basic carrier formulation was prepared by mixing two solutions: (1) a water-based solution containing aristoflex avc, Osmocide, Tween 20, and water; and (2) an oil-based solution containing isopropyl myristate, coconut dienthanolamine, ethylparaben, isobutylparaben, methylparaben, and propylparaben. The test compounds (JC15 or JC9) were added to the cream to a final concentration of 1 to 2.5 micromolar, as needed.
Male and female human volunteers ranging in age from 15 years to 52 years were treated by topical application of the test compounds to the acne-affected skin. […] The results are given in Table 1, and a representative result (photo pictures) from one volunteer is depicted in FIG. 7.

progesterone receptor = biological target: T1, progesterone receptor (Homo sapiens, UniProt P06401); experiment: Western blot of LNCaP cell lysates, progesterone receptor; type: cell-based; conditions: 1 or 2 micromolar, 24 hours, presence or absence of DHT
T1 construct: endogenous in cells; host or cells: LNCaP
T1 sequence (P06401 1-933): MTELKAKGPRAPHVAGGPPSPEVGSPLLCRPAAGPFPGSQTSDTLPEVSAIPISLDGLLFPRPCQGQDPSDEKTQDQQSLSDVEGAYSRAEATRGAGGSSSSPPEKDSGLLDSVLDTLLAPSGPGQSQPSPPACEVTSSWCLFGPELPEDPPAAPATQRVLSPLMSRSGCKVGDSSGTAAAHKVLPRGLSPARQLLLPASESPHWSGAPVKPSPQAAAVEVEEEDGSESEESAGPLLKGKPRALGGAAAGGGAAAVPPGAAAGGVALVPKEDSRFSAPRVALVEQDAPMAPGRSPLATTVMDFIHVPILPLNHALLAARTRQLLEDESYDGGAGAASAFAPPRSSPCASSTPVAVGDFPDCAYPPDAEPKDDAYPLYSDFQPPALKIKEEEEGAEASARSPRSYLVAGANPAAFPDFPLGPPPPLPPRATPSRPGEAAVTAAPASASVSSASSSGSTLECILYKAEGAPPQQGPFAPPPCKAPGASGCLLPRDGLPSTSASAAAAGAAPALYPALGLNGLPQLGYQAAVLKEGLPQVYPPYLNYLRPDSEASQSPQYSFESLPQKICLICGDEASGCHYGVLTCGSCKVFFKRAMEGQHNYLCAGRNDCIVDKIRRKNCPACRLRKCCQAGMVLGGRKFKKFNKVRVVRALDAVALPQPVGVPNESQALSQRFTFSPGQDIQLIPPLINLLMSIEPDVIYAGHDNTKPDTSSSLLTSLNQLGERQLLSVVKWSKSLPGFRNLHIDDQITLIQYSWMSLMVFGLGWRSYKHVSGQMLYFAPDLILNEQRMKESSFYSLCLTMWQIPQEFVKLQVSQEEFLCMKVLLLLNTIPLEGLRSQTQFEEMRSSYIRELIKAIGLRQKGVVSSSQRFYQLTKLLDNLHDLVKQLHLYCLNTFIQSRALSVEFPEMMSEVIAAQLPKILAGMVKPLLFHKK

ER beta = biological target: T2, ER beta (Homo sapiens, UniProt Q92731); experiment: Western blot of LNCaP cell lysates, ER beta; type: cell-based; conditions: 1 or 2 micromolar, 24 hours, presence or absence of DHT
T2 construct: endogenous in cells; host or cells: LNCaP
T2 sequence (Q92731 whole entry): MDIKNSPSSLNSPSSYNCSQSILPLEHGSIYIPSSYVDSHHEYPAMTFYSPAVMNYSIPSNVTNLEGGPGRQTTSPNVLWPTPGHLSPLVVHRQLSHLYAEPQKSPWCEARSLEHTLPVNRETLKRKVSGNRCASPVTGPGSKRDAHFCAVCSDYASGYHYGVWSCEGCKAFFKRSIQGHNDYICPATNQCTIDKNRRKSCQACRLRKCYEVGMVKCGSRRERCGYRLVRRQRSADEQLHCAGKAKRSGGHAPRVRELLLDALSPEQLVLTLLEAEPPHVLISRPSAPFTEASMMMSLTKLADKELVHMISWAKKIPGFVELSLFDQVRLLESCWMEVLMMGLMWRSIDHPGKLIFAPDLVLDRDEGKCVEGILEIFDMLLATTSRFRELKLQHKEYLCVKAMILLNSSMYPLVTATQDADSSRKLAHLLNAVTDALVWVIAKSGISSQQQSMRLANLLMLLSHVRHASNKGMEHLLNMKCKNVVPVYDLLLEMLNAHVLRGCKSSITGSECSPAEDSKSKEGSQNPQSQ
Experimental: Human prostate cancer LNCaP cells and T47D cells were plated at a density of 7×10^5 cells per 60 millimeter tissue culture dish in […] (RPMI) medium containing 10% FBS. The medium was changed to RPMI or DME medium containing 10% charcoal-stripped serum 24 hours later to deplete cellular androgens or estrogens. After another 24 hours, treatment with the test compounds began. The test dose of JC15 was 1 or 2 micromolar and the test does of JC9 was 1, 5 and 10 micromolar. LNCap cells also received dihydrotestosterone (DHT) (3 nanomolar). Control cells received a corresponding amount of the vehicle, dimethylsulfoxide (DMSO) (<0.04%) for an equivalent exposure time. Cells were incubated with JC15 for 24 or 48 hours, and were lysed in 250 microliters of 1×SDS/PAGE loading buffer. Approximately 40 micrograms of total cellular protein was loaded in each lane of a pre-cast gel (NuPAGE, Invitrogen). Protein separation and transfer were performed following the manufacturer's instructions.
For the prostate cell lysates, androgen receptor (AR) protein was visualized by incubating the resultant membranes with an anti-AR antibody (BD-PharMingen), followed by chemiluminescence detection (ECL Plus, Amersham). […] The resultant protein signals were quantified using densitometry and NIH ImageJ software.

Row | SMILES | time within which bands of sebaceous glands were reduced (sebaceous glands; JC9 25 micromolar cream, topical) | size of the sebaceous glandular lobe and duct (sebaceous glands; JC9 25 micromolar cream) | Recovery Time (acne vulgaris; 1 micromolar, four times a day) [week] | Recovery Time (acne vulgaris; 1 micromolar, twice a day) [weeks] | Recovery Time (acne vulgaris; 2.5 micromolar, twice a day) [week] | size of the sebaceous glandular lobe and duct (sebaceous glands; JC15 1 micromolar cream) | cellular concentration of progesterone receptor (progesterone receptor) | skin condition of forehead (photographs) (acne vulgaris; JC15 1 micromolar in carrier base, acne-affected volunteer, one month topical treatment) | Recovery Time (acne vulgaris; 1 micromolar, as often as needed, listed as ASCJ15) | Recovery Time (acne vulgaris; 1 micromolar, twice a day, listed as ASCJ15) | cellular concentration of ER beta (ER beta)
1 | COc1ccc(C=CC(=O)C=C(O)C=Cc2ccc(OC)c(OC)c2)cc1OC [JC9, 5-hydroxy-1,7-bis(3,4-dimethoxyphenyl)-1,4,6-heptatrien-3-one] | 4-5 weeks | reduction in the size of the sebaceous glandular lobe and duct; also recorded: significantly reduced the size of lobe and ducts of sebaceous glands | 1 | 2 | 1 |  |  |  |  |  | 
2 | CCOC(=O)CCC(C(=O)C=Cc1ccc(O)c(OC)c1)C(=O)C=Cc1ccc(O)c(OC)c1 (centres unmarked) [JC15, 7-(4-hydroxy-3-methoxyphenyl)-4-[3-(4-hydroxy-3-methoxyphenyl)acryloyl]-5-oxo-hept-6-enoic acid ethyl ester] |  |  |  |  |  | reduction in the size of the sebaceous glandular lobe and duct; also recorded: approximately equivalent to the decrease caused by castration | decreased | visible improvement to skin condition | 1 week weeks (2×) and 2 weeks | 2 weeks (2×) and 1 week weeks | did not substantially affect
